Literature values, collected in patent US9084838B2, “Feminine care absorbent article for use in warm climates” (Kimberly-Clark Worldwide, Inc., priority 2011, dated 2015).

Conditions: at 25° C.

For `O=C(O)CC(O)(CC(=O)O)C(=O)O` [citric acid], the pKa2 is listed as 4.76 and the pKa3 is listed as 6.40.
